The values that follow come from PubChem BioAssay (NCI).

The structures appear in SMILES notation.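 How tested: cells in 96-well plates exposed to compound for 48 hours at five concentrations. Abbreviation: GI50, concentration required for 50% inhibition of growth. Definition used: TGI = concentration required for complete inhibition of growth.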

Some test systems named below: EKVX NSCLC; T-47D breast; HCC-2998 colon; 786-0 renal; HOP-62 NSCLC; MCF7 breast; NCI-H226 lung; KM12 colon; COLO 205 colon; HCT-15 colon.
Test in all cases: DTP human tumour cell line panel, 48 h

The GI50 is the concentration giving 50% growth inhibition. As a reminder, the TGI is the concentration giving total growth inhibition. High values mean less potent growth arrest, low ones more potent growth arrest. For the compound `c1ccc2cc(C[n+]3ccn(CCCCCCCCCCn4cc[n+](Cc5ccc6ccccc6c5)c4)c3)ccc2c1`, the GI50 is 0.442 µM in the assay on EKVX NSCLC; 0.491 µM in the assay with T-47D breast; 1.37 µM in the assay with HCC-2998 colon; 5.33 µM with 786-0 renal; 1.09 µM in the assay with HOP-62 NSCLC; 0.554 µM in the assay on MCF7 breast. Besides, the GI50 is 0.918 µM in the assay on NCI-H226 lung, 0.727 µM with KM12 colon, 0.411 µM in the assay with COLO 205 colon and 3.76 µM in the assay with HCT-15 colon. The TGI with EKVX NSCLC worked out at 9.07 µM; in the assay with T-47D breast, 4.74 µM; with HCC-2998 colon it was 5.13 µM; in the assay with 786-0 renal it was 32.6 µM; in the assay on HOP-62 NSCLC, 7.24 µM; in the assay with MCF7 breast, 2.3 µM. The TGI was 13.6 µM in the assay on NCI-H226 lung, 2.73 µM in the assay on KM12 colon, 1.68 µM in the assay on COLO 205 colon and above 100 µM in the assay with HCT-15 colon.
As for `O=C(O)c1ccc(C(=O)O)c(C(=O)Nc2ccc3c(c2)C(=O)c2ccccc2-3)c1`, the concentration for total growth inhibition (TGI) in the assay on EKVX NSCLC, in the assay on T-47D breast, with HCC-2998 colon, in the assay with 786-0 renal, in the assay on HOP-62 NSCLC and with MCF7 breast was above 100 µM throughout. The TGI in the assay with NCI-H226 lung, with KM12 colon, in the assay with COLO 205 colon and in the assay on HCT-15 colon was above 100 µM in each case.
`O=C(Nc1ccc(/C=C/c2ccc(NC(=O)c3cc(S(=O)(=O)O)c4cccnc4c3O)cc2S(=O)(=O)O)c(S(=O)(=O)O)c1)c1cc(S(=O)(=O)O)c2cccnc2c1O`: the GI50 with EKVX NSCLC was above 50.9 µM; in the assay with T-47D breast it was above 49.6 µM; with HCC-2998 colon, 97.6 µM; in the assay with 786-0 renal, 4.86 µM; in the assay with HOP-62 NSCLC, 10.9 µM; with MCF7 breast it was 38.5 µM. The GI50 in the assay on NCI-H226 lung is 6.29 µM; with KM12 colon, 42.8 µM; in the assay on COLO 205 colon, 19.9 µM; in the assay on HCT-15 colon it was above 41.6 µM. Besides, the concentration for total growth inhibition (TGI) in the assay with EKVX NSCLC is above 80.5 µM; in the assay with T-47D breast, above 100 µM; with HCC-2998 colon it was above 100 µM; with 786-0 renal, above 54.5 µM; in the assay with HOP-62 NSCLC it was above 66.1 µM; with MCF7 breast it was above 100 µM. In addition, the TGI in the assay on NCI-H226 lung was 47.5 µM; in the assay on KM12 colon, above 67.7 µM; with COLO 205 colon, above 57.5 µM; in the assay with HCT-15 colon, above 71.5 µM.
For `COc1cc2c(cc1Nc1nc(Nc3cccc(F)c3C(N)=O)c3cc[nH]c3n1)N(C(=O)CN1CCN(C(C)C)CC1)CC2`, the GI50 in the assay on EKVX NSCLC was 3.08 µM; with T-47D breast, 3.23 µM; with HCC-2998 colon, 3.08 µM; in the assay on 786-0 renal it was 3.98 µM; in the assay with HOP-62 NSCLC, 2.88 µM; with MCF7 breast, 0.683 µM. The GI50 was 3.41 µM in the assay on NCI-H226 lung, 3.82 µM in the assay on KM12 colon, 0.666 µM in the assay on COLO 205 colon and 4.36 µM with HCT-15 colon. Also, the TGI in the assay on EKVX NSCLC was determined as 7.13 µM; with T-47D breast, 6.54 µM; in the assay on HCC-2998 colon, 6.31 µM; in the assay with 786-0 renal, 7.53 µM; with HOP-62 NSCLC, 5.92 µM; in the assay with MCF7 breast it was 4.32 µM. Moreover, the TGI came out at 7.01 µM with NCI-H226 lung, 7.31 µM in the assay on KM12 colon, 3.65 µM in the assay on COLO 205 colon and 9.33 µM with HCT-15 colon.
